Experimental data taken from US20250325534A1, “MICROBIOCIDAL TETRAHYDROISOQUINOLINE DERIVATIVES” (SYNGENTA CROP PROTECTION AG, priority 2021, published 2025).

What was measured:
[1] = test system: Mycosphaerella arachidis; assay: Mycosphaerella arachidis (Cercospora arachidicola) / liquid culture (early leaf spot); assay type: cell-based; conditions: 96 h, photometrically 4-5 days after application, read-out: control of Mycosphaerella arachidis
Protocol: (§1) Example B11: Mycosphaerella arachidis (Cercospora arachidicola)/Liquid Culture (Early Leaf Spot) Conidia of the fungus from cryogenic storage are directly mixed into a nutrient broth (potato dextrose broth). After placing a DMSO solution of test compound into a microtiter plate (96-well format), the nutrient broth containing the fungal spores is added. The test plates are incubated at 24° C. and the inhibition of growth is determined photometrically 4-5 days after application.

[2] = test system: Mycosphaerella graminicola; assay: Mycosphaerella graminicola (Septoria tritici) / liquid culture (Septoria blotch); assay type: cell-based; conditions: Zymoseptoria tritici, 96 h, photometrically 4-5 days after application, read-out: control of Mycosphaerella graminicola
In short: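 Conidia from cryogenic storage mixed into potato dextrose broth, added to test compound in DMSO. Plates incubated at 24° C; growth inhibition read photometrically 4-5 days after application.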

[3] = test system: Monographella nivalis; assay: Monographella nivalis (Microdochium nivale) / liquid culture (foot rot cereals); assay type: cell-based; conditions: 96 h, photometrically 4-5 days after application, read-out: control of Monographella nivalis
In short: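 Microdochium nivale conidia in potato dextrose broth were added to test compound in DMSO and incubated at 24° C. Growth inhibition was measured photometrically 4-5 days after application.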

[4] = test system: Glomerella lagenarium; assay: Glomerella lagenarium (Colletotrichum lagenarium) / liquid culture (anthracnose); assay type: cell-based; conditions: Colletotrichum orbiculare, 72 h, photometrically 3-4 days after application, read-out: control of Glomerella lagenarium
Protocol: as §1, with “B5: Glomerella Lagenarium (Colletotrichum Lagenarium)/Liquid” for “B11: Mycosphaerella arachidis (Cercospora arachidicola)/Liquid”, “(Anthracnose)” for “(Early Leaf Spot)”, “measured” for “determined”, “3-4” for “4-5”

[5] = test system: Alternaria solani; assay: Alternaria solani / tomato / leaf disc (early blight); assay type: in vivo; conditions: foliar, inoculated 2 days after application, vs untreated control
Protocol: Example B1: Alternaria solani/Tomato/Leaf Disc (Early Blight) Tomato leaf disks cv. Baby are placed on agar in multiwell plates (24-well format) and sprayed with the formulated test compound diluted in water. The leaf disks are inoculated with a spore suspension of the fungus 2 days after application. The inoculated leaf disks are incubated at 23° C./21° C. (day/night) and 80% relative humidity under a light regime of 12 h/12 h (light/dark) in a climate cabinet and the activity of a compound is assessed as percent disease control compared to untreated when an appropriate level of disease damage appears on untreated check disk leaf disks (5-7 days after application).

Row | Compound | inhibition of growth at 20 ppm [1] | inhibition of growth at 20 ppm [2] | inhibition of growth at 20 ppm [3] | inhibition of growth at 20 ppm [4] | pest or weed control at 200 ppm [5]
1 | Cc1nn(C)cc1C1CN(C(=O)c2cc(-c3ccc(F)cc3F)on2)Cc2ccccc21 (centres unmarked) [Compound P-121, [5-(2,4-difluorophenyl)isoxazol-3-yl]-[4-(1,3-dimethylpyrazol-4-yl)-3,4-dihydro-1H-isoquinolin-2-yl]methanone] | ≥ 80% | ≥ 80% | ≥ 80% | ≥ 80% | –
2 | Cc1nn(C)c(C)c1C1CN(C(=O)c2cc(-c3ccccc3)on2)Cc2ccccc21 (centres unmarked) [Compound P-148, (5-phenylisoxazol-3-yl)-[4-(1,3,5-trimethylpyrazol-4-yl)-3,4-dihydro-1H-isoquinolin-2-yl]methanone] | ≥ 80% | ≥ 80% | – | – | ≥ 80%
3 | Cn1cc(C2CN(C(=O)c3nnc(-c4ccccc4)o3)Cc3ccccc32)cn1 (centres unmarked) [Compound P-163, [4-(1-methylpyrazol-4-yl)-3,4-dihydro-1H-isoquinolin-2-yl]-(5-phenyl-1,3,4-oxadiazol-2-yl)methanone] | – | – | – | – | ≥ 80%
4 | Cc1nn(C)c(C)c1C1CN(C(=O)c2cc(-c3ccc(F)cc3F)sn2)Cc2ccccc21 (centres unmarked) [Compound P-115, [5-(2,4-difluorophenyl)isothiazol-3-yl]-[4-(1,3,5-trimethylpyrazol-4-yl)-3,4-dihydro-1H-isoquinolin-2-yl]methanone] | – | ≥ 80% | – | – | ≥ 80%
5 | Cn1cc(C2CN(C(=O)c3nc(-c4ccc(F)cc4F)no3)Cc3ccccc32)cn1 (centres unmarked) [Compound P-127, [3-(2,4-difluorophenyl)-1,2,4-oxadiazol-5-yl]-[4-(1-methylpyrazol-4-yl)-3,4-dihydro-1H-isoquinolin-2-yl]methanone] | – | ≥ 80% | ≥ 80% | – | ≥ 80%
6 | CCn1cc(C2CN(C(=O)c3cc(-c4ccc(F)cc4F)on3)Cc3ccccc32)cn1 (centres unmarked) [Compound P-131, [5-(2,4-difluorophenyl)isoxazol-3-yl]-[4-(1-ethylpyrazol-4-yl)-3,4-dihydro-1H-isoquinolin-2-yl]methanone] | – | ≥ 80% | – | – | ≥ 80%
7 | Cn1cc(C2CN(C(=O)c3cc(-c4ccccc4)on3)Cc3cc(F)ccc32)cn1 (centres unmarked) [Compound P-138, [7-fluoro-4-(1-methylpyrazol-4-yl)-3,4-dihydro-1H-isoquinolin-2-yl]-(5-phenylisoxazol-3-yl)methanone] | ≥ 80% | ≥ 80% | ≥ 80% | ≥ 80% | –
8 | COC(=O)C1c2ccccc2C(c2cnn(C)c2)CN1C(=O)c1cc(-c2ccc(F)cc2F)on1 (centres unmarked) [Compound P-42, methyl 2-[5-(2,4-difluorophenyl)isoxazole-3-carbonyl]-4-(1-methylpyrazol-4-yl)-3,4-dihydro-1H-isoquinoline-1-carboxylate] | – | – | – | – | ≥ 80%
9 | Cc1c(C2CN(C(=O)c3nnc(-c4ccc(F)cc4F)o3)Cc3ccccc32)cnn1C (centres unmarked) [Compound P-225] | – | – | – | – | ≥ 80%
10 | Cn1ncc(C2CN(C(=O)c3cc(-c4ccc(F)cc4F)on3)Cc3ccccc32)c1Cl (centres unmarked) [Compound P-38, [4-(5-chloro-1-methyl-pyrazol-4-yl)-3,4-dihydro-1H-isoquinolin-2-yl]-[5-(2,4-difluorophenyl)isoxazol-3-yl]methanone] | – | – | – | – | ≥ 80%
11 | Cn1cc(C2CN(C(=O)c3cc(-c4ccccc4)on3)Cc3ccccc32)cn1 (centres unmarked) [Compound P-205, [4-(1-methylpyrazol-4-yl)-3,4-dihydro-1H-isoquinolin-2-yl]-(5-phenylisoxazol-3-yl)methanone] | ≥ 80% | ≥ 80% | ≥ 80% | ≥ 80% | –
12 | Cn1cc(C2CN(C(=O)c3cc(-c4cccc(F)c4)on3)Cc3ccccc32)cn1 (centres unmarked) [Compound P-168, [5-(3-fluorophenyl)isoxazol-3-yl]-[4-(1-methylpyrazol-4-yl)-3,4-dihydro-1H-isoquinolin-2-yl]methanone] | – | ≥ 80% | – | – | ≥ 80%
13 | Cn1ncc(C2CN(C(=O)c3cc(-c4ccc(F)cc4F)on3)Cc3ccccc32)c1F (centres unmarked) [Compound P-52, [5-(2,4-difluorophenyl)isoxazol-3-yl]-[4-(5-fluoro-1-methyl-pyrazol-4-yl)-3,4-dihydro-1H-isoquinolin-2-yl]methanone] | – | – | – | – | ≥ 80%
14 | Cc1nn(C)c(C)c1C1CN(C(=O)c2cc(-c3ccc(F)cc3F)on2)Cc2ncccc21 (centres unmarked) [Compound P-124, [5-(2,4-difluorophenyl)isoxazol-3-yl]-[5-(1,3,5-trimethylpyrazol-4-yl)-6,8-dihydro-5H-1,7-naphthyridin-7-yl]methanone] | – | – | – | – | ≥ 80%
15 | Cc1c(C2CN(C(=O)c3cc(-c4ccc(F)cc4F)on3)Cc3ccccc32)cnn1C (centres unmarked) [Compound P-140, [5-(2,4-difluorophenyl)isoxazol-3-yl]-[4-(1,5-dimethylpyrazol-4-yl)-3,4-dihydro-1H-isoquinolin-2-yl]methanone] | – | – | – | – | ≥ 80%
16 | Cn1cc(C2CN(C(=O)c3nnc(-c4ccc(F)cc4F)o3)Cc3ccccc32)cn1 (centres unmarked) [Compound P-55, [5-(2,4-difluorophenyl)-1,3,4-oxadiazol-2-yl]-[4-(1-methylpyrazol-4-yl)-3,4-dihydro-1H-isoquinolin-2-yl]methanone] | – | ≥ 80% | – | – | ≥ 80%
17 | Cc1nn(C)c(C)c1C1CN(C(=O)c2cc(-c3ccc(F)cc3)on2)Cc2ccccc21 (centres unmarked) [Compound P-118, [5-(4-fluorophenyl)isoxazol-3-yl]-[4-(1,3,5-trimethylpyrazol-4-yl)-3,4-dihydro-1H-isoquinolin-2-yl]methanone] | ≥ 80% | ≥ 80% | – | – | ≥ 80%
18 | Cn1cc(C2CN(C(=O)c3nnc(-c4ccc(F)cc4)o3)Cc3ccccc32)cn1 (centres unmarked) [Compound P-56, [5-(4-fluorophenyl)-1,3,4-oxadiazol-2-yl]-[4-(1-methylpyrazol-4-yl)-3,4-dihydro-1H-isoquinolin-2-yl]methanone] | – | – | – | – | ≥ 80%
19 | Cn1cc(C2(C)CN(C(=O)c3nnc(-c4ccc(F)cc4F)s3)Cc3ccccc32)cn1 (centres unmarked) [Compound P-207, [5-(2,4-difluorophenyl)-1,3,4-thiadiazol-2-yl]-[4-methyl-4-(1-methylpyrazol-4-yl)-1,3-dihydroisoquinolin-2-yl]methanone] | – | – | – | – | ≥ 80%
20 | Cc1c(C2CN(C(=O)c3nnc(C4CCC4)s3)Cc3ccccc32)cnn1C (centres unmarked) [Compound P-232, (5-cyclobutyl-1,3,4-thiadiazol-2-yl)-[4-(1,5-dimethylpyrazol-4-yl)-3,4-dihydro-1H-isoquinolin-2-yl]methanone] | ≥ 80% | ≥ 80% | – | ≥ 80% | –
21 | Cn1cc([C@]2(C)CN(C(=O)c3nnc(-c4ccc(F)cc4F)s3)Cc3ccccc32)cn1 [Compound P-208, [5-(2,4-difluorophenyl)-1,3,4-thiadiazol-2-yl]-[(4R)-4-methyl-4-(1-methylpyrazol-4-yl)-1,3-dihydroisoquinolin-2-yl]methanone] | – | – | – | – | ≥ 80%
22 | Cn1cc(C2CN(C(=O)c3cc(-c4ccco4)on3)Cc3ccccc32)cn1 (centres unmarked) [Compound P-188, [5-(2-furyl)isoxazol-3-yl]-[4-(1-methylpyrazol-4-yl)-3,4-dihydro-1H-isoquinolin-2-yl]methanone] | ≥ 80% | ≥ 80% | – | ≥ 80% | –
23 | Cn1cc(C2CN(C(=O)c3cc(C4CCC4)on3)Cc3ccccc32)cn1 (centres unmarked) [Compound P-182, (5-cyclobutylisoxazol-3-yl)-[4-(1-methylpyrazol-4-yl)-3,4-dihydro-1H-isoquinolin-2-yl]methanone] | ≥ 80% | ≥ 80% | – | – | ≥ 80%
24 | Cn1cc(C2c3ccccc3CN(C(=O)c3cc(-c4ccc(F)cc4F)on3)C2(C)C)cn1 (centres unmarked) [Compound P-105, [5-(2,4-difluorophenyl)isoxazol-3-yl]-[3,3-dimethyl-4-(1-methylpyrazol-4-yl)-1,4-dihydroisoquinolin-2-yl]methanone] | – | – | – | – | ≥ 80%
25 | Cn1cc(C2CN(C(=O)c3noc(-c4ccccc4)n3)Cc3ccccc32)cn1 (centres unmarked) [Compound P-146, [4-(1-methylpyrazol-4-yl)-3,4-dihydro-1H-isoquinolin-2-yl]-(5-phenyl-1,2,4-oxadiazol-3-yl)methanone] | – | – | – | – | ≥ 80%
